These results are taken from patent US12466781B2, “Thyromimetics” (Autobahn Therapeutics, Inc., priority 2019, dated 2025).

One assay deals with T1, TRα (Homo sapiens, UniProt P10827).
T1 construct: expressed in transfected cells; host or cells: HEK293
T1 sequence (P10827 163-410 isoform P10827-2 limits assumed): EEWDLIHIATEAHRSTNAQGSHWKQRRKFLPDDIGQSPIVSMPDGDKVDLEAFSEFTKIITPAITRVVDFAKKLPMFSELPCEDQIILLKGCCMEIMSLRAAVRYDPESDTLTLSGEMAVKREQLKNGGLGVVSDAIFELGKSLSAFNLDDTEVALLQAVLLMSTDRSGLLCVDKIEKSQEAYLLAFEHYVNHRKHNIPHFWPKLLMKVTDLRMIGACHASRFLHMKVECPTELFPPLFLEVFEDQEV
The experiment in a line: Thyroid-hormone reporter-gene assay (TRα-Gal4 hybrid, luciferase, HEK293). The note with it: reporter cells, 24 hr incubation; Table 2; read-out: TRα (EC50). The assay is classed as cell-based. The method, then:
(§1) Compounds were tested for thyroid-hormone receptor activity using TR reporter-gene assays. Reporter cells used in the assays express a TR-receptor hybrid (either TRα or TRβ) in which the native N-terminal DNA binding domain (DBD) has been replaced with that of the yeast Gal4 DBD. The reporter gene, firefly luciferase, is functionally linked to the Gal4 upstream activation sequence (UAS). Both cell lines were derived from human embryonic kidney (HEK293).
(§2) Step 1: A suspension of reporter cells was prepared in cell recovery medium containing 10% charcoal-stripped FBS, and dispensed into assay plates. The plates were pre-incubated for 6 hours in a cell culture incubator (37° C./5% CO2/85% humidity).
(§3) These intermediate stocks were subsequently diluted directly into compound screening medium containing 10% charcoal-stripped FBS to generate “2×-concentration” treatment media (containing 0.2, 0.4 or 0.8% DMSO).
(§4) Step 3: At the end of the pre-incubation period, culture media were discarded from the assay plates, and all wells received 100 μl of compound screening medium. 100 μl of each of the previously prepared “2×-concentration” treatment media were dispensed into duplicate assay wells, thereby achieving the desired final treatment concentrations. The final concentration of DMSO in all assay wells was 0.1, 0.2 or 0.4%. Assay plates were incubated for 24 hr in a cell culture incubator (37° C./5% CO2/85% humidity).
(§5) Step 4: At the 24 h assay endpoint, treatment media were discarded and 100 μl/well of luciferase detection reagent was added. Relative luminometer units (RLUs) were quantified from each assay well.

For another assay, the target named is T2, TRβ (Homo sapiens, UniProt P10828).
T2 construct: expressed in transfected cells; host or cells: HEK293
T2 sequence (P10828 217-461 limits assumed): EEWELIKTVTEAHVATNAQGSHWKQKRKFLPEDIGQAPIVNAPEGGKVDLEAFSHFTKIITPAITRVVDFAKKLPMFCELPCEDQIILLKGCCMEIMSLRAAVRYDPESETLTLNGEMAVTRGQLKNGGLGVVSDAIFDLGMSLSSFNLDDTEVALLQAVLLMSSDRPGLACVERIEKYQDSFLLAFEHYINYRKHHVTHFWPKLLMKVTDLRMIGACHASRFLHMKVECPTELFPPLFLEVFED
As to the kind of experiment: Thyroid-hormone reporter-gene assay (TRβ-Gal4 hybrid, luciferase, HEK293). The assay is classed as cell-based. The note with it: Table 2; for T3-SI (selectivity index): calculated as EC50 (TRα)/EC50 (TRβ); for EC50: reporter cells, 24 hr incubation, read-out: TRβ (EC50). The method, then: as §1, §2, §3, §4, §5

The EC50 is the concentration at which the effect is half-maximal.

A value given as a limit tells only on which side of the number the result lay.

On to `C=Cc1c(F)c(OCC(=O)O)cc(Cl)c1Cc1ccc(O)c(C(C)C)c1` [Compound 67, 2-(5-chloro-2-fluoro-4-(4-hydroxy-3-isopropylbenzyl)-3-vinylphenoxy)acetic acid], for which the EC50 at TRα is 100 to 1000 nM. On TRβ, the “T3-SI (selectivity index)” value is “++ (3×<T3-SI≤30×)” and the EC50 lay in the range of 10 to 100 nM.

With `CCc1c(F)c(OCC(=O)O)cc(Cl)c1Cc1ccc(O)c(C(C)C)c1` [Compound 69, 2-(5-chloro-3-ethyl-2-fluoro-4-(4-hydroxy-3-isopropylbenzyl)phenoxy)acetic acid], at TRα, the EC50 is greater than 1000 nM. At TRβ, the “T3-SI (selectivity index)” value is “++ (3×<T3-SI≤30×)” and the EC50 is 100 to 1000 nM.

Regarding `CC(C)c1cc(Cc2c(Cl)cc(OCC(=O)O)c(F)c2C(C)C)ccc1O` [Compound 73, 2-(5-chloro-2-fluoro-4-(4-hydroxy-3-isopropylbenzyl)-3-isopropylphenoxy)acetic acid], the EC50 on TRα was greater than 1000 nM. Also, at TRβ, the “T3-SI (selectivity index)” value was “+++ (T3-SI>30×)” and the EC50 was 100 to 1000 nM.

`C=Cc1cc(OCC(=O)O)c(F)c(Cl)c1Cc1ccc(O)c(C(C)C)c1` [Compound 75, 2-(3-chloro-2-fluoro-4-(4-hydroxy-3-isopropylbenzyl)-5-vinylphenoxy)acetic acid]: the EC50 at TRα was in the range of 100 to 1000 nM. Further, at TRβ, the “T3-SI (selectivity index)” value was “+++ (T3-SI>30×)” and the EC50 lay in the range of 10 to 100 nM.

As for `CCc1cc(OCC(=O)O)c(F)c(Cl)c1Cc1ccc(O)c(C(C)C)c1` [Compound 77, 2-(3-chloro-5-ethyl-2-fluoro-4-(4-hydroxy-3-isopropylbenzyl)phenoxy)acetic acid], the EC50 on TRα and at TRβ was 10 to 100 nM in each case. Also, the “T3-SI (selectivity index)” value on TRβ was “++ (3×<T3-SI≤30×)”.

Regarding `C=C(C)c1cc(OCC(=O)O)c(F)c(Cl)c1Cc1ccc(O)c(C(C)C)c1` [Compound 79, 2-(3-chloro-2-fluoro-4-(4-hydroxy-3-isopropylbenzyl)-5-(prop-1-en-2-yl)phenoxy)acetic acid], the EC50 at TRα was 100 to 1000 nM. Moreover, on TRβ, the “T3-SI (selectivity index)” value is “+++ (T3-SI>30×)” and the EC50 is 10 to 100 nM.

With `CC(C)c1cc(Cc2c(C(C)C)cc(OCC(=O)O)c(F)c2Cl)ccc1O` [Compound 81, 2-(3-chloro-2-fluoro-4-(4-hydroxy-3-isopropylbenzyl)-5-isopropylphenoxy)acetic acid], the EC50 on TRα and at TRβ was 10 to 100 nM in each case. Also, at TRβ, the “T3-SI (selectivity index)” value was “++ (3×<T3-SI≤30×)”.

In the case of `O=C(O)COc1cc(Cl)c(Cc2ccc(O)c(Cc3ccc(F)cc3)c2)c(Cl)c1F` [Compound 83, 2-(3,5-dichloro-2-fluoro-4-(3-(4-fluorobenzyl)-4-hydroxybenzyl)phenoxy)acetic acid], the EC50 on TRα lay in the range of 100 to 1000 nM. For the same molecule, on TRβ, the “T3-SI (selectivity index)” value is “+++ (T3-SI>30×)” and the EC50 lay in the range of 10 to 100 nM.

Regarding `CCCC(c1ccc(F)cc1)c1cc(Cc2c(Cl)cc(OCC(=O)O)c(F)c2Cl)ccc1O` (stereo not drawn) [Compound 85, 2-(3,5-dichloro-2-fluoro-4-(3-(1-(4-fluorophenyl)butyl)-4-hydroxybenzyl)phenoxy)acetic acid], the EC50 on TRα was greater than 1000 nM. In addition, on TRβ, the “T3-SI (selectivity index)” value is “+++ (T3-SI>30×)” and the EC50 is 100 to 1000 nM.

For `CC(C)c1cc(Cc2c(Cl)cc(OCC(=O)O)c(Cl)c2Cl)ccc1O` [Compound 89, 2-(2,3,5-trichloro-4-(4-hydroxy-3-isopropylbenzyl)phenoxy)acetic acid], the EC50 on TRα and on TRβ was 10 to 100 nM each time. In addition, at TRβ, the “T3-SI (selectivity index)” value is “++ (3×<T3-SI≤30×)”.

Turning to `Cc1c(OCC(=O)O)cc(Cl)c(Cc2ccc(O)c(C(C)C)c2)c1Cl` [Compound 91, 2-(3,5-dichloro-4-(4-hydroxy-3-isopropylbenzyl)-2-methylphenoxy)acetic acid], on TRα, the EC50 was 100 to 1000 nM. In addition, at TRβ, the “T3-SI (selectivity index)” value is “+++ (T3-SI>30×)” and the 50% effective concentration (EC50) was 10 to 100 nM.

With `Cc1cc(OCC(=O)O)c(F)c(C)c1Cc1ccc(O)c(C(C)C)c1F` [Compound 93, 2-(2-fluoro-4-(2-fluoro-4-hydroxy-3-isopropylbenzyl)-3,5-dimethylphenoxy)acetic acid], the EC50 at TRα lay in the range of 100 to 1000 nM. At TRβ, the “T3-SI (selectivity index)” value was “+++ (T3-SI>30×)” and the EC50 was in the range of 10 to 100 nM.

For `CC(C)c1c(O)ccc(Cc2c(Cl)cc(OCC(=O)O)c(F)c2Cl)c1F` [Compound 97, 2-(3,5-dichloro-2-fluoro-4-(2-fluoro-4-hydroxy-3-isopropylbenzyl)phenoxy)acetic acid], the EC50 on TRα lay within 10 to 100 nM. In addition, at TRβ, the “T3-SI (selectivity index)” value is “++ (3×<T3-SI≤30×)” and the EC50 is less than 10 nM.

`O=C(O)COc1cc(Cl)c(Cc2ccc(O)c(-c3cc(OC(F)F)ccc3F)c2F)c(Cl)c1F` [Compound 101, 2-(3,5-dichloro-4-((5′-(difluoromethoxy)-2,2′-difluoro-6-hydroxy-[1,1′-biphenyl]-3-yl)methyl)-2-fluorophenoxy)acetic acid]: the EC50 on TRα is greater than 1000 nM. In addition, on TRβ, the “T3-SI (selectivity index)” value is “++ (3×<T3-SI≤30×)” and the EC50 fell in the range of 100 to 1000 nM.

As for `O=C(O)COc1cc(Cl)c(Cc2ccc(O)c(Cc3ccc(F)cc3)c2F)c(Cl)c1F` [Compound 103, 2-(3,5-dichloro-2-fluoro-4-(2-fluoro-3-(4-fluorobenzyl)-4-hydroxybenzyl)phenoxy)acetic acid], the EC50 on TRα was in the range of 10 to 100 nM. At TRβ, the “T3-SI (selectivity index)” value is “+++ (T3-SI>30×)” and the EC50 fell in the range of 10 to 100 nM.

`CC(c1ccc(F)cc1)c1c(O)ccc(Cc2c(Cl)cc(OCC(=O)O)c(F)c2Cl)c1F` (stereo not drawn) [Compound 107, 2-(3,5-dichloro-2-fluoro-4-(2-fluoro-3-(1-(4-fluorophenyl)ethyl)-4-hydroxybenzyl)phenoxy)acetic acid]: the EC50 on TRα lay within 10 to 100 nM. Besides, on TRβ, the “T3-SI (selectivity index)” value is “++ (3×<T3-SI≤30×)” and the EC50 was 10 to 100 nM.

For the molecule `Cc1cc(OCC(=O)O)c(F)c(Cl)c1Cc1ccc(O)c(C(C)C)c1F` [Compound 109, 2-(3-chloro-2-fluoro-4-(2-fluoro-4-hydroxy-3-isopropylbenzyl)-5-methylphenoxy)acetic acid], on TRα, the EC50 was in the range of 10 to 100 nM. Also, at TRβ, the “T3-SI (selectivity index)” value is “+++ (T3-SI>30×)” and the half-maximal effective concentration (EC50) is less than 10 nM.

As for `Cc1c(F)c(OCC(=O)O)cc(Cl)c1Cc1ccc(O)c(C(C)C)c1F` [Compound 112, 2-(5-chloro-2-fluoro-4-(2-fluoro-4-hydroxy-3-isopropylbenzyl)-3-methylphenoxy)acetic acid], the EC50 on TRα is 10 to 100 nM; at TRβ it was less than 10 nM. Besides, at TRβ, the “T3-SI (selectivity index)” value was “++ (3×<T3-SI≤30×)”.

Turning to `Cc1cc(OCC(=O)O)c(F)c(Cl)c1Cc1ccc(O)c(C(C)C)c1` [Compound 115, 2-(3-chloro-2-fluoro-4-(4-hydroxy-3-isopropylbenzyl)-5-methylphenoxy)acetic acid], the values for the EC50 at TRα and on TRβ were 100 to 1000 nM and 10 to 100 nM, respectively. Further, on TRβ, the “T3-SI (selectivity index)” value was “++ (3×<T3-SI≤30×)”.

For the molecule `Cc1c(F)c(OCC(=O)O)cc(Cl)c1Cc1ccc(O)c(C(C)C)c1` [Compound 118, 2-(5-chloro-2-fluoro-4-(4-hydroxy-3-isopropylbenzyl)-3-methylphenoxy)acetic acid], the EC50 at TRα was 100 to 1000 nM. For the same molecule, at TRβ, the “T3-SI (selectivity index)” value was “+++ (T3-SI>30×)” and the EC50 is 10 to 100 nM.

Consider `C=C(C)c1c(F)c(OCC(=O)O)cc(Cl)c1Cc1ccc(O)c(C(C)C)c1F` [Compound 121, 2-(5-chloro-2-fluoro-4-(2-fluoro-4-hydroxy-3-isopropylbenzyl)-3-(prop-1-en-2-yl)phenoxy)acetic acid], for which the EC50 on TRα was greater than 1000 nM. For the same molecule, at TRβ, the “T3-SI (selectivity index)” value was “++ (3×<T3-SI≤30×)” and the EC50 fell in the range of 100 to 1000 nM.

For the molecule `CC(C)c1c(O)ccc(Cc2c(Cl)cc(OCC(=O)O)c(F)c2C(C)C)c1F` [Compound 123, 2-(5-chloro-2-fluoro-4-(2-fluoro-4-hydroxy-3-isopropylbenzyl)-3-isopropylphenoxy)acetic acid], the EC50 on TRα lay within 100 to 1000 nM. Moreover, at TRβ, the “T3-SI (selectivity index)” value was “++ (3×<T3-SI≤30×)” and the EC50 lay in the range of 10 to 100 nM.
